Laboratory results as given in US8946270B2, “Amido-pyridyl ether compounds and compositions and their use against parasites” (Merial Limited, priority 2011, dated 2015).
Where two headings read alike, the source gives them in different places.

How the values were obtained:
Haematobia irritans = test: whole plant or invertebrate; conditions: 5 μg/cm^2; for mortality at 5 µg/cm2: Haematobia irritans, read-out: Contact SP Horn Fly PCT Mortality (%)
Protocol: A solution of the test compound was used to treat a filter paper contained within a Petri dish and the filter paper was allowed to evaporate to dryness. A small piece of absorbent cotton moistened with 10% sucrose and ten adult flies (Haematobia irritans or Stomoxys calcitrans) were added to each dish. Dishes were capped and held at room temperature. Assessments were performed at 4 and 24 hours after infestation in comparison with untreated controls.

[1] = system: Rhipicephalus sanguineus (Brown Dog Tick); test: whole plant or invertebrate; conditions: for Contact SP Rhicicep PCT Mortality (%): 200 ppm; for mortality at 200 ppm: Rhipicephalus sanguineus, read-out: Contact SP Rhicicep PCT Mortality (%)
Excerpt: A solution of the test compound was used to coat the inner wall of glass vials and to treat two filter papers. Once dried, one filter paper was placed in the cap of the vial and the other in the bottom of the vial. Each treated vial was infested with 10 adult Rhipicephalus sanguineus (Brown Dog Tick). […]

| Structure (SMILES) | Contact SP Rhicicep PCT Mortality (%) ([1]; timepoint 4 hrs) | Contact SP Rhicicep PCT Mortality (%) ([1]; timepoint 24 hrs) | mortality at 200 ppm ([1]; timepoint 4 hrs) | mortality at 200 ppm ([1]; timepoint 24 hrs) | further results |
| --- | --- | --- | --- | --- | --- |
| CC(C)CNC(=O)c1ccc(C(C)COc2cccc(OC(F)(F)F)c2)cn1 (racemic) [Compound 251] |  |  |  |  | Contact SP Horn Fly PCT Mortality (%) (Haematobia irritans; timepoint 4 hrs): 80%; Contact SP Horn Fly PCT Mortality (%) (Haematobia irritans; timepoint 24 hrs): 100% |
| COCCCNC(=O)c1ccc(COc2ccc(OC(F)(F)F)cc2)cn1 [Compound 18] |  |  |  |  | Contact SP Horn Fly PCT Mortality (%) (Haematobia irritans; timepoint 4 hrs): 0%; Contact SP Horn Fly PCT Mortality (%) (Haematobia irritans; timepoint 24 hrs): 40% |
| CCNC(=O)c1ccc(COc2ccc(OC(F)(F)F)cc2)cn1 [Compound 23] | 80% | 90% |  |  |  |
| CCCNC(=O)c1ccc(COc2ccc(OC(F)(F)F)cc2)cn1 [Compound 34] |  |  |  |  | Contact SP Horn Fly PCT Mortality (%) (Haematobia irritans; timepoint 4 hrs): 60%; Contact SP Horn Fly PCT Mortality (%) (Haematobia irritans; timepoint 24 hrs): 80% |
| C=C(C)CNC(=O)c1ccc(COc2ccc(OC(F)(F)F)cc2)cn1 [Compound 38] |  |  |  |  | Contact SP Horn Fly PCT Mortality (%) (Haematobia irritans; timepoint 4 hrs): 50%; Contact SP Horn Fly PCT Mortality (%) (Haematobia irritans; timepoint 24 hrs): 80% |
| CCCCNC(=O)c1ccc(COc2ccc(OC(F)(F)F)cc2)cn1 [Compound 40] |  |  |  |  | Contact SP Horn Fly PCT Mortality (%) (Haematobia irritans; timepoint 4 hrs): 0%; Contact SP Horn Fly PCT Mortality (%) (Haematobia irritans; timepoint 24 hrs): 40% |
| CCC(C)CNC(=O)c1ccc(COc2ccc(OC(F)(F)F)cc2)cn1 (stereo not shown) [Compound 41] |  |  |  |  | mortality at 5 µg/cm2 (Haematobia irritans; timepoint 4 hrs): 60%; mortality at 5 µg/cm2 (Haematobia irritans; timepoint 24 hrs): 60% |
| CSCCNC(=O)c1ccc(COc2cccc(OC(F)(F)F)c2)cn1 [Compound 49] |  |  |  |  | mortality at 5 µg/cm2 (Haematobia irritans; timepoint 4 hrs): 60%; mortality at 5 µg/cm2 (Haematobia irritans; timepoint 24 hrs): 0% |
| CC(C)NC(=O)c1ccc(COc2cccc(OC(F)(F)F)c2)cn1 [Compound 50] |  |  |  |  | Contact SP Horn Fly PCT Mortality (%) (Haematobia irritans; timepoint 4 hrs): 70%; Contact SP Horn Fly PCT Mortality (%) (Haematobia irritans; timepoint 24 hrs): 80% |
| C=C(C)CNC(=O)c1ccc(COc2cccc(OC(F)(F)F)c2)cn1 [Compound 53] |  |  |  |  | Contact SP Horn Fly PCT Mortality (%) (Haematobia irritans; timepoint 4 hrs): 20%; Contact SP Horn Fly PCT Mortality (%) (Haematobia irritans; timepoint 24 hrs): 20% |
| CCC(C)CNC(=O)c1ccc(COc2cccc(OC(F)(F)F)c2)cn1 (stereo not shown) [Compound 57] |  |  |  |  | Contact SP Horn Fly PCT Mortality (%) (Haematobia irritans; timepoint 4 hrs): 70%; Contact SP Horn Fly PCT Mortality (%) (Haematobia irritans; timepoint 24 hrs): 80% |
| Cc1cccc(OCc2ccc(C(=O)NCC3CC3)nc2)c1 [Compound 61] |  |  |  |  | Contact SP Horn Fly PCT Mortality (%) (Haematobia irritans; timepoint 4 hrs): 90%; Contact SP Horn Fly PCT Mortality (%) (Haematobia irritans; timepoint 24 hrs): 90% |
| CCc1cccc(OCc2ccc(C(=O)NCC3CCOCC3)nc2)c1 [Compound 68] |  |  | 50% | 90% |  |
| CCc1cccc(OCc2ccc(C(=O)NCCSC)nc2)c1 [Compound 70] | 80% | 100% |  |  |  |
| CCc1cccc(OCc2ccc(C(=O)NCC3CC3)nc2)c1 [Compound 73] |  |  |  |  | Contact SP Horn Fly PCT Mortality (%) (Haematobia irritans; timepoint 4 hrs): 100%; Contact SP Horn Fly PCT Mortality (%) (Haematobia irritans; timepoint 24 hrs): 100% |
| O=C(NCC1CC1)c1ccc(COc2ccc(C(F)(F)F)cc2)cn1 [Compound 95] |  |  |  |  | Contact SP Horn Fly PCT Mortality (%) (Haematobia irritans; timepoint 4 hrs): 50%; Contact SP Horn Fly PCT Mortality (%) (Haematobia irritans; timepoint 24 hrs): 70% |
| O=C(NCc1ccncc1)c1ccc(COc2cc(F)cc(Br)c2)cn1 [Compound 114] | 40% | 60% |  |  |  |
| CCCNC(=O)c1ccc(COc2cc(F)cc(Br)c2)cn1 [Compound 120] | 60% | 70% |  |  |  |
| C=C(C)CNC(=O)c1ccc(COc2cccc(OC)c2)cn1 [Compound 150] | 70% | 70% |  |  |  |
| COc1cccc(OCc2ccc(C(=O)NCC(C)C)nc2)c1 [Compound 151] | 0% | 80% |  |  |  |
| CC(C)CNC(=O)c1ccc(COc2ccc(F)c(F)c2)cn1 [Compound 155] | 60% | 100% |  |  |  |
| COCCCNC(=O)c1ccc(COc2cccc(-c3cccc(F)c3)c2)cn1 [Compound 166] | 40% | 80% |  |  |  |
| COC(CNC(=O)c1ccc(COc2cccc(-c3cccc(F)c3)c2)cn1)OC [Compound 167] | 100% | 100% |  |  |  |
| CSCCNC(=O)c1ccc(COc2cccc(-c3cccc(F)c3)c2)cn1 [Compound 174] | 90% | 100% |  |  |  |
| CCC(C)CNC(=O)c1ccc(COc2cccc(-c3cccc(F)c3)c2)cn1 (stereo not shown) [Compound 181] | 70% | 90% |  |  |  |

| Structure (SMILES) | Contact SP Rhicicep PCT Mortality (%) ([1]; timepoint 4 hrs) | Contact SP Rhicicep PCT Mortality (%) ([1]; timepoint 24 hrs) | mortality at 200 ppm ([1]; timepoint 4 hrs) | mortality at 200 ppm ([1]; timepoint 24 hrs) | further results |
| --- | --- | --- | --- | --- | --- |
| CCOc1cccc(OCc2ccc(C(=O)NCC(C)C)nc2)c1 [Compound 199] | 100% | 100% |  |  |  |
| CC(C)CNC(=O)c1ccc(CCOc2cccc(C(F)(F)F)c2)cn1 [Compound 209] |  |  | 90% | 100% |  |
| CC(C)(C)CNC(=O)c1ccc(COCc2ccc(Cl)cc2)cn1 [Compound 216] | 0% | 60% |  |  |  |
| O=C(NCC1CCOCC1)c1ccc(CCOc2cccc(C(F)(F)F)c2)cn1 [Compound 220] |  |  | 100% | 100% |  |
| CCC(C)CNC(=O)c1ccc(CCOc2cccc(C(F)(F)F)c2)cn1 (stereo not shown) [Compound 221] |  |  | 90% | 100% |  |
| CC(C)CNC(=O)c1ccc(CCOc2ccc(F)c(OC(F)(F)F)c2)cn1 [Compound 222] | 90% | 100% |  |  |  |
| CC(C)CNC(=O)c1ccc(CCOc2cc(Cl)cc(Cl)c2)cn1 [Compound 225] |  |  | 90% | 100% |  |
| CC(C)CNC(=O)c1ccc(COCc2ccc(Cl)c(OC(F)(F)F)c2)cn1 [Compound 227] | 100% | 100% |  |  |  |
| CC(C)CNC(=O)c1ccc(COCc2ccc(F)c(OC(F)(F)F)c2)cn1 [Compound 228] |  |  | 90% | 90% |  |
| CC(C)CNC(=O)c1ccc(COCc2cc(F)cc(C(F)(F)F)c2)cn1 [Compound 229] |  |  | 80% | 80% |  |
| CC(C)CNC(=O)c1ccc(COCc2ccc(C(F)(F)F)cc2F)cn1 [Compound 232] |  |  | 100% | 100% |  |
| CC(C)CNC(=O)c1ccc(COCc2ccc(Cl)cc2)cn1 [Compound 234] |  |  | 90% | 90% |  |
| CC(C)CNC(=O)c1ccc(CCOc2ccc(Br)c(OC(F)(F)F)c2)cn1 [Compound 237] |  |  | 90% | 100% |  |
| CC(C)CCNC(=O)c1ccc(CCOc2cccc(OC(F)(F)F)c2)cn1 [Compound 240] |  |  | 90% | 90% |  |
| CCC(C)NC(=O)c1ccc(CCOc2cccc(OC(F)(F)F)c2)cn1 (stereo not shown) [Compound 241] |  |  | 50% | 90% |  |
| CCC(C)CNC(=O)c1ccc(CCOc2cccc(OC(F)(F)F)c2)cn1 (stereo not shown) [Compound 242] |  |  | 70% | 90% |  |
| O=C(NCC1CCOCC1)c1ccc(COc2ccc(C(F)(F)F)cc2Br)cn1 [Compound 256] | 90% | 100% |  |  |  |
| O=C(NCC1CCOCC1)c1ccc(COc2ccc(C(F)(F)F)cc2F)cn1 [Compound 257] | 80% | 90% |  |  |  |
| O=C(NCC1CCOCC1)c1ccc(COCc2ccc(Cl)cc2)cn1 [Compound 259] |  |  | 80% | 90% |  |
| O=C(NCC1CCOCC1)c1ccc(COCc2ccccc2Cl)cn1 [Compound 260] | 90% | 100% |  |  |  |
| O=C(NCC1CCOCC1)c1ccc(COCc2ccccc2C(F)(F)F)cn1 [Compound 266] |  |  | 70% | 90% |  |
| CC(C)CNC(=O)c1ccc(CCOc2cc(F)cc(C(F)(F)F)c2)cn1 [Compound 278] | 70% | 100% |  |  |  |
| CC(C)CNC(=O)c1ccc(COCc2ccc(C(F)(F)F)c(F)c2)cn1 [Compound 283] | 100% | 100% |  |  |  |
| CC(C)CNC(=O)c1ccc(COCc2ccc(C(F)(F)F)c(Cl)c2)cn1 [Compound 284] | 90% | 100% |  |  |  |
| CC(C)CNC(=O)c1ccc(COCc2cccc(F)c2F)cn1 [Compound 290] | 80% | 80% |  |  |  |
